Assay results taken from the NIST ThermoML archive (doi:10.1021/je1007235).
± gives the expanded uncertainty stated by the source.

Legend:
[1] = wn = mass fraction of the nth substance listed; settings: 298.15 K, 101.3 kPa, Liquid
[2] = 101.33 kPa, Liquid

For `CN(C)C=O` [dimethylformamide] + CC(=O)[O-].CCCCn1cc[n+](C)c1, the viscosity ([1]; w1 = 1) was 0.92 mPa·s.
For `O` [water] + CC(=O)[O-].CCn1cc[n+](C)c1, the viscosity ([1]; w1 = 1) was 0.89 mPa·s.
`CCn1cc[n+](C)c1.[Cl-]` [1-ethyl-3-methylimidazolium chloride] gave a viscosity ([2]; 353.15 K) of 65 ± 3 mPa·s, a viscosity ([2]; 373.1 K) of 27 ± 2 mPa·s and a viscosity ([2]; 393.15 K) of 13 ± 2 mPa·s.
`CC(=O)[O-].CCCCn1cc[n+](C)c1` [1-butyl-3-methylimidazolium acetate] + CC#N showed a viscosity ([1]; w2 = 0.089) of 148 ± 19 mPa·s, a viscosity ([1]; w2 = 0.213) of 27 ± 2 mPa·s and a viscosity ([1]; w2 = 0.389) of 5 ± 2 mPa·s. For the same molecule, the viscosity ([1]; w2 = 0.593) was 2 mPa·s.
Molecule `CCCCn1cc[n+](C)c1.[Cl-]` [1-butyl-3-methylimidazolium chloride] has a viscosity ([2]; 353.15 K) of 142 ± 17 mPa·s, a viscosity ([2]; 373.1 K) of 68 ± 3 mPa·s and a viscosity ([2]; 393.15 K) of 31 ± 2 mPa·s.
For `CC(=O)[O-].CCCCn1cc[n+](C)c1` [1-butyl-3-methylimidazolium acetate] + OCCO, the viscosity ([1]; w2 = 0.081) was 291 ± 58 mPa·s, the viscosity ([1]; w2 = 0.248) was 102 ± 9 mPa·s and the viscosity ([1]; w2 = 0.464) was 39 ± 2 mPa·s. The viscosity ([1]; w2 = 0.678) was 26 ± 2 mPa·s.
For `CC(=O)[O-].CCCCn1cc[n+](C)c1` [1-butyl-3-methylimidazolium acetate] + CN(C)C=O, the viscosity ([1]; w2 = 0.062) was 231 ± 40 mPa·s, the viscosity ([1]; w2 = 0.191) was 54 ± 3 mPa·s and the viscosity ([1]; w2 = 0.389) was 11 ± 2 mPa·s. It also gave a viscosity ([1]; w2 = 0.606) of 4 mPa·s.
`OCCO` [1,2-ethanediol] + CC(=O)[O-].CCCCn1cc[n+](C)c1 showed a viscosity ([1]; w1 = 1) of 16.1 ± 2 mPa·s.
In the case of `CC(=O)[O-].CCCCn1cc[n+](C)c1` [1-butyl-3-methylimidazolium acetate], the viscosity ([2]; 298.15 K) is reported as 383 ± 85 mPa·s, the viscosity ([2]; 353.15 K) is reported as 26 ± 2 mPa·s and the viscosity ([2]; 373.1 K) is reported as 15 ± 2 mPa·s. The viscosity ([2]; 393.15 K) was 9 ± 2 mPa·s.
Work on `CC(=O)[O-].CCn1cc[n+](C)c1` [1-ethyl-3-methylimidazolium acetate] yielded a viscosity ([2]; 298.15 K) of 162 ± 21 mPa·s, a viscosity ([2]; 353.15 K) of 17 ± 2 mPa·s and a viscosity ([2]; 373.1 K) of 9 ± 2 mPa·s. The viscosity ([2]; 393.15 K) was 5 ± 2 mPa·s.
With `CCCCn1cc[n+](C)c1.N#CN=C=[N-]` [1-butyl-3-methylimidazolium dicyanamide] the viscosity ([2]; 298.15 K) was 31 ± 2 mPa·s, the viscosity ([2]; 353.15 K) was 11 ± 2 mPa·s and the viscosity ([2]; 373.1 K) was 6 ± 2 mPa·s. It also gave a viscosity ([2]; 393.15 K) of 4 mPa·s.
Work on `CC#N` [acetonitrile] + CC(=O)[O-].CCCCn1cc[n+](C)c1 yielded a viscosity ([1]; w1 = 1) of 0.34 mPa·s.
For `O` [water] + CC(=O)[O-].CCCCn1cc[n+](C)c1, the viscosity ([1]; w1 = 1) was 0.89 mPa·s.
`CCCCCCCC[n+]1ccn(C)c1.[Cl-]` [1-methyl-3-octylimidazolium chloride] gave a viscosity ([2]; 353.15 K) of 375 ± 82 mPa·s, a viscosity ([2]; 373.1 K) of 161 ± 21 mPa·s and a viscosity ([2]; 393.15 K) of 81 ± 5 mPa·s.
Molecule `CC(=O)[O-].CCCCn1cc[n+](C)c1` [1-butyl-3-methylimidazolium acetate] + O has a viscosity ([1]; w2 = 0.029) of 383 ± 88 mPa·s, a viscosity ([1]; w2 = 0.031) of 341 ± 74 mPa·s and a viscosity ([1]; w2 = 0.048) of 236 ± 41 mPa·s. It also gave a viscosity ([1]; w2 = 0.512) of 18 ± 2 mPa·s and a viscosity ([1]; w2 = 0.731) of 5 ± 2 mPa·s.
Molecule `CCCCCCn1cc[n+](C)c1.[Cl-]` [1-hexyl-3-methylimidazolium chloride] has a viscosity ([2]; 353.15 K) of 293 ± 57 mPa·s, a viscosity ([2]; 373.1 K) of 87 ± 6 mPa·s and a viscosity ([2]; 393.15 K) of 43 ± 3 mPa·s.
With `CC(=O)[O-].CCn1cc[n+](C)c1` [1-ethyl-3-methylimidazolium acetate] + O the viscosity ([1]; w2 = 0.023) was 122 ± 13 mPa·s, the viscosity ([1]; w2 = 0.045) was 81 ± 5 mPa·s and the viscosity ([1]; w2 = 0.084) was 57 ± 3 mPa·s. The viscosity ([1]; w2 = 0.192) was 32 ± 2 mPa·s, the viscosity ([1]; w2 = 0.374) was 12 ± 2 mPa·s and the viscosity ([1]; w2 = 0.556) was 4 mPa·s.
